Measured values published in US11912675B1, “N'-(2-(5-(4-chlorophenyl)-1,3,4-oxadiazol-2-ylthio)acetoxy)-3,4-dimethoxybenzimidamide as an antimicrobial compound” (KING FAISAL UNIVERSITY, priority 2023, dated 2024).

Experiments:
Format in all cases: cell-based
Staphylococcus aureus = test: agar plate disc-diffusion, antibacterial, Staphylococcus aureus; settings: nutrient agar, 37° C., 48 h, DMSO control zone subtracted
Procedure: (§1) The agar plate disc-diffusion method was applied. […] The discs were then placed onto the surface of agar plates (nutrient agar for bacteria and Sabouraud's dextrose agar for fungi) seeded with the test organism. Each plate contained 15 mL of the agar medium, previously seeded with 0.2 mL of the broth culture of each organism pregrown for 18 h. The plates were incubated at 37° C. for 48 h, and 72 h for fungi. The inhibition zones was measured in mm. Discs impregnated with DMSO were used as a control, and its inhibition zone was subtracted from the tested compound actual inhibition zone.
(§2) The antibacterial activity was screened against gram positive bacteria namely Bacillus cereus and Staphylococcus aureus and gram-negative bacterial strains namely Pseudomonas aeruginosa and Escherichia coli, while the antifungal activity was screened against Aspergillus flavus and Chrysosporium keratinophilum as shown in Table 1 and 2.

Escherichia coli = test: agar plate disc-diffusion, antibacterial, Escherichia coli; settings: nutrient agar, 37° C., 48 h, DMSO control zone subtracted
Procedure: The agar plate disc-diffusion method was applied. Sterilized filter papers (6 mm in diameter) were wetted with 10 μL of a solution of N′-(2-(5-(4-chlorophenyl)-1,3,4-oxadiazol-2-ylthio)acetoxy)-3,4-dimethoxybenzimidamide (3) to be tested, containing 10 mg/mL in DMSO, and the discs were allowed to air dry. The discs were then placed onto the surface of agar plates (nutrient agar for bacteria and Sabouraud's dextrose agar for fungi) seeded with the test organism. Each plate contained 15 mL of the agar medium, previously seeded with 0.2 mL of the broth culture of each organism pregrown for 18 h. The plates were incubated at 37° C. for 48 h, and 72 h for fungi. The inhibition zones was measured in mm. Discs impregnated with DMSO were used as a control, and its inhibition zone was subtracted from the tested compound actual inhibition zone.
as §2

Bacillus cereus = test: agar plate disc-diffusion, antibacterial, Bacillus cereus; settings: nutrient agar, 37° C., 48 h, DMSO control zone subtracted
Procedure: as §1, §2

Aspergillus flavus = test: agar plate disc-diffusion, antifungal, Aspergillus flavus; settings: Sabouraud's dextrose agar, 72 h, DMSO control zone subtracted
Procedure: as §1, §2

[1] = system: Chrysosporium keratinophilum; test: agar plate disc-diffusion, antifungal, Chrysosporium keratinophilum; settings: Sabouraud's dextrose agar, 72 h, DMSO control zone subtracted
Procedure: as §1, §2

Pseudomonas aeruginosa = test: agar plate disc-diffusion, antibacterial, Pseudomonas aeruginosa; settings: nutrient agar, 37° C., 48 h, DMSO control zone subtracted
Procedure: as §1, §2

[2] = A = concentration of comp. = 10,000 μg/mL
[3] = B = concentration of comp. = 30,000 μL
[4] = C = concentration of comp. = 50,000 μL
[5] = A = concentration of comp. = 10,000 μL

COc1ccc(/C(N)=N/OC(=O)CSc2nnc(-c3ccc(Cl)cc3)o2)cc1OC [compound 3, N′-(2-(5-(4-chlorophenyl)-1,3,4-oxadiazol-2-ylthio)acetoxy)-3,4-dimethoxybenzimidamide]
inhibition zone, Staphylococcus aureus, A (Staphylococcus aureus; [2]): 17 mm
inhibition zone, Staphylococcus aureus, B (Staphylococcus aureus; [3]): 22 mm
inhibition zone, Staphylococcus aureus, C (Staphylococcus aureus; [4]): 37 mm
inhibition zone, Escherichia coli, A (Escherichia coli; [2]): 28 mm
inhibition zone, Escherichia coli, B (Escherichia coli; [3]): 31 mm
inhibition zone, Escherichia coli, C (Escherichia coli; [4]): 48 mm
inhibition zone, Bacillus Cereus, A (Bacillus cereus; A =): 27 mm
inhibition zone, Bacillus Cereus, B (Bacillus cereus; [3]): 30 mm
inhibition zone, Bacillus Cereus, C (Bacillus cereus; [4]): 40 mm
inhibition zone, Aspergillus flavus, A (Aspergillus flavus; [5]): 22 mm
inhibition zone, Aspergillus flavus, B (Aspergillus flavus; [3]): 26 mm
inhibition zone, Aspergillus flavus, C (Aspergillus flavus; [4]): 37 mm
inhibition zone, Chrysosporium keratinophilum, A ([1]; A =): 26 mm
inhibition zone, Chrysosporium keratinophilum, B [1, 3]: 27 mm
inhibition zone, Chrysosporium keratinophilum, C [1, 4]: 40 mm
inhibition zone, Pseudomonas aeruginosa, A (Pseudomonas aeruginosa; [5]): 25 mm
inhibition zone, Pseudomonas aeruginosa, B (Pseudomonas aeruginosa; [3]): 29 mm
inhibition zone, Pseudomonas aeruginosa, C (Pseudomonas aeruginosa; [4]): 41 mm
